Assay results taken from article PMC2567432 (PLoS ONE, 2008).

Assays:
[1] = test system: breast cancer JIMT-1 cells; assay: Cell proliferation WST-1 assay, JIMT-1; assay type: cell-based, human; settings: JIMT-1, 24 h, WST-1, increasing concentrations
Method: (§1) Figure 3 Growth inhibition of different tumor cell lines by polyphenols. […] Following 24-h incubation, cell proliferation was evaluated using the WST-1 assay.
(§2) Tumor cells were cultured in RPMI medium containing 10% fetal calf serum (RPMI-FCS) (PC-3, JIMT-1, MDA-MD 231) or in DMEM-FCS (astrocytoma 1321N1 cells) containing penicillin/streptomycin (100 U penicillin/ml; 100 µg streptomycin/ml) at 37°C/5% CO2. Cytosolic protein extracts of tumor cells were prepared using extraction buffer composed of 25 mM Tris, 2 mM EDTA, 10% Glycerol, 1% Triton ×100, 2 mM DTT, 1mM PMSF, pH. 7.0 containing 0.3% protease inhibitor cocktail. Protein content was determined according to Bradford. Specific activity of enzymes analyzed in cell extracts was expressed as U/mg protein.
(§3) Cell proliferation/vitality of tumor cells (96-well plates; 5000 cells/well) and primary human hepatocytes (24-well plates; 0.25×10^6 cells/well) was assayed using the WST-1 assay according to manufacturer's instructions. Trypan blue exclusion was performed by staining cells with 0.4% aqueous trypan blue solution according to the manufacturer's instructions.

astrocytoma 1321N1 cells = assay: Cellular ATP content (CellTiter-Glo), 1321N1; assay type: cell-based; settings: 1321N1, 6 h; curcumin 0–100 µM, MGO 0–1000 µM
Method: (§4) Cellular ATP content was determined using the CellTiter-Glo® Luminescent Cell Viability Assay. Data represent the mean±S.D. of independent experiments (n = 12).
(§5) Cell ATP content was determined by means of the CellTiter-Glo® Luminescent Cell Viability Assay according to the manufacturer's instructions (Promega, Madison, USA). […] After 6-h incubation, cells were mixed with test reagents and luminescence was read according to the manufacturer's instructions. A standard curve was prepared from ATP (1 µM to 10 nM) in medium.

JIMT-1 cells = assay: Cellular ATP content (CellTiter-Glo), JIMT-1; assay type: cell-based, human; settings: JIMT-1, 6 h; curcumin 0–100 µM, MGO 0–1000 µM
Method: as §4, §5

[2] = test system: brain astrocytoma 1321N1 cells; assay: Cell proliferation WST-1 assay, 1321N1; assay type: cell-based; settings: 1321N1, 24 h; for anti-proliferative effect compared to curcumin: WST-1
Method: as §1, §2, §3

glyoxalase 1 (Glo1) = target: T1, glyoxalase 1 (Glo1) (Homo sapiens, UniProt Q04760); assay: Inhibition of purified glyoxalase 1 activity (Dixon plot); assay type: biochemical; settings: purified Glo1 70 mU, substrates MGO and GSH, Dixon plot
T1 construct: Glo1 was purified from human erythrocytes as described earlier; from tissue; host or cells: human erythrocytes
T1 sequence (Q04760 2-184 limits assumed): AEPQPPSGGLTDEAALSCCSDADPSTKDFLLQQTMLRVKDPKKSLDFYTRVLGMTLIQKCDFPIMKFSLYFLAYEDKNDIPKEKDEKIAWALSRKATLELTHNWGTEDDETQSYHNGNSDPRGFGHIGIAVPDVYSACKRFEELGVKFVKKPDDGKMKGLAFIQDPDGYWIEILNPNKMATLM
Method: Purified Glo1 (70 mU) was incubated with increasing concentrations of different polyphenols at three substrate concentrations; and enzyme activity was recorded (n = 3). The inhibitor concentration was plotted vs. the reciprocal of enzyme activity (1/v) in Dixon plots.
Glo1 was purified from human erythrocytes as described earlier. Briefly, erythrocytes were treated with butanol/chloroform to denature hemoglobin followed by acetone and ammonium sulphate fractionation.
The determination of Glo1 (E.C.4.4.1.5) activity has been described previously. […] The inhibition constant, Ki value of the inhibitors was evaluated by Dixon plot showing the reciprocal of enzyme velocity against the inhibitor concentration at variable concentrations of the substrate. Human Glo2 (E.C.3.1.2.6) was measured using the substrate S-lactoylglutathione as described earlier.
A goodness-of-fit criterion (Akaike's information criterion, AIC) was used for falsification of incompatible inhibition models. […] Spearman's rank correlation test was applied to evaluate the correlation between the IC50 values of pro-inflammatory cytokine release and the Ki-values of various polyphenols. Data were presented as means±S.D. of at least three independent experiments. […] In all other tests, significance has been considered at values of p<0.05.

[3] = test system: IL-1β release from LPS-stimulated blood cells; assay: Whole blood assay, LPS-induced IL-1β release (cytometric bead array); assay type: cell-based; settings: Homo sapiens; heparinized whole blood, LPS 10 ng/ml, 6 h, 37°C
Method: Figure 2 Effect of polyphenols on IL-1β release from LPS-stimulated blood cells. Heparinized whole blood was stimulated by LPS in the absence or presence of polyphenols at increasing concentrations and incubated for 6 h at 37°C with 5% CO2. (A) Released IL-1β as measured in cell supernatants. Samples without additives but LPS were set at 100%. (B) The calculated […] values of the respective polyphenols. Data represent mean±S.D. of independent experiments (n = 6).
Whole blood assay was performed as previously described. Accordingly, LPS (10 ng/ml), test substances and 200 µl heparinized human blood of healthy donors, obtained from the blood bank of the University of Leipzig, were co-incubated with serum-free medium (RPMI-SF, 1 ml final volume) in 24-well culture plates for 6 h at 37°C with 5% CO2. Samples were removed, centrifuged at 2000×g for 10 min and supernatants were stored at −20°C until assaying for inflammatory cytokines.
Assessment of cytokine levels in supernatants of human blood cell cultures was accomplished using Cytometric Bead Array (CBA™, BD Biosciences, San Jose, U.S.A). The procedure was carried out according to the manufacturer's instruction. Fluorescence measurement and analysis were performed using a FACSCalibur and the CellQuest software (BD Biosciences).

| Ki (glyoxalase 1 (Glo1)) [µM] | IC50 [3] [µM] | SMILES | anti-proliferative effect compared to curcumin [2] | further results |
| --- | --- | --- | --- | --- |
| 21 ± 3.8 | 34.6 | O=c1c(O)c(-c2ccc(O)cc2)oc2cc(O)cc(O)c12 [kaempferol] | – | – |
| 35 ± 6.3 | 68 | O=c1cc(-c2ccc(O)c(O)c2)oc2cc(O)cc(O)c12 [luteolin] | – | – |
| – | 20 | O=c1c(O)c(-c2ccc(O)c(O)c2)oc2cc(O)cc(O)c12 [quercetin] | less anti-proliferative | – |

The remaining lines, values behind:

| SMILES | Ki (glyoxalase 1 (Glo1)) [µM] | IC50 [3] [µM] | anti-proliferative effect compared to curcumin [2] | further results |
| --- | --- | --- | --- | --- |
| CC(=O)C=O [MGO, methylglyoxal, reference compound] | – | – | – | effect on cell proliferation [1]: anti-proliferative properties; cellular ATP content (astrocytoma 1321N1 cells): comparable effects; cellular ATP content (JIMT-1 cells): comparable effects; effect on cell proliferation ([2]; WST-1, increasing concentrations): anti-proliferative properties |
| O=c1c(O)c(-c2cc(O)c(O)c(O)c2)oc2cc(O)cc(O)c12 [myricetin] | – | – | less anti-proliferative | – |
| C[C@@H]1O[C@@H](OC[C@H]2O[C@@H](Oc3c(-c4ccc(O)c(O)c4)oc4cc(O)cc(O)c4c3=O)[C@H](O)[C@@H](O)[C@@H]2O)[C@H](O)[C@H](O)[C@H]1O [rutin] | 140 ± 15 | – | – | – |
